For one assay, the target named is TNAP (Homo sapiens (Human), UniProt P05186). The assay can be described thus: TNAP (PPi) inhibition assay, pyrophosphate as substrate. The class given is biochemical. In a few lines:
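Secreted epitope-tagged human TNAP from transiently transfected COS-1 cells, dialyzed to remove phosphate. Inhibitors tested kinetically at pH 7.4 with PPi as substrate; released phosphate quantified colorimetrically with Biomol Green reagent.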

Another assay concerns the target TNAP human plasma (Homo sapiens, UniProt P05186). The class given is biochemical. As to conditions: substrate pNPP.

The structures appear in SMILES notation.

As usually defined, the IC50 is the point on the concentration scale where inhibition reaches its midpoint. Take `COc1ccc(OC)c(S(=O)(=O)Nc2cnc3ccc(C(=O)NC4CCCCC4)cc3c2)c1` [Example IX-16, 3-(2,5-Dimethoxy-benzenesulfonylamino)-quinoline-6-carboxylic Acid Cyclohexylamide]: the IC50 against TNAP was under 100 nM; at TNAP human plasma, under 5000 nM.

In turn, `O=C(O)c1cncc(NS(=O)(=O)c2cc(Br)ccc2OC(F)(F)F)c1` [Example XII-10, 5-(5-Bromo-2-(trifluoromethoxy)phenylsulfonamido)nicotinic acid] had a half-inhibitory concentration (IC50) against TNAP of under 100 nM.

Turning to `O=C(OC1CCCCC1)c1cncc(NS(=O)(=O)c2cc(Br)ccc2OC(F)(F)F)c1` [Example XII-11, Cyclohexyl 5-(5-bromo-2-(trifluoromethoxy)phenylsulfonamido)nicotinate], the IC50 at TNAP is under 100 nM.

`O=C(Oc1ccccc1)c1cncc(NS(=O)(=O)c2cc(Br)ccc2OC(F)(F)F)c1` [Example XII-12, Phenyl 5-(5-bromo-2-(trifluoromethoxy)phenylsulfonamido)nicotinate]: the half-maximal inhibitory concentration (IC50) at TNAP is under 100 nM.

As for `NC(=O)c1cncc(NS(=O)(=O)c2cc(Br)ccc2OC(F)(F)F)c1` [Example XII-13, 5-(5-Bromo-2-(trifluoromethoxy)phenylsulfonamido)nicotinamide], the IC50 against TNAP was under 100 nM.

On to `CNC(=O)c1cncc(NS(=O)(=O)c2cc(Br)ccc2OC(F)(F)F)c1` [Example XII-14, 5-(5-Bromo-2-(trifluoromethoxy)phenylsulfonamido)-N-methylnicotinamide], for which, on TNAP, the 50% inhibitory concentration (IC50) fell in the range of 100 to 1000 nM.

In the case of `COC(=O)c1cncc(NS(=O)(=O)c2cc(OC(F)(F)F)ccc2OC)c1` [Example XII-15, Methyl 5-(2-methoxy-5-(trifluoromethoxy)phenylsulfonamido)nicotinate], on TNAP, the IC50 was in the range of 100 to 1000 nM.

Molecule `CCCOC(=O)c1cncc(NS(=O)(=O)c2cc(OC(F)(F)F)ccc2OC)c1` [Example XII-16, Propyl 5-(2-methoxy-5-(trifluoromethoxy)phenylsulfonamido)nicotinate] had an IC50 at TNAP of under 100 nM.

For `COc1ccc(OC(F)(F)F)cc1S(=O)(=O)Nc1cncc(C(=O)OC2CCCCC2)c1` [Example XII-17, Cyclohexyl 5-(2-methoxy-5-(trifluoromethoxy)phenylsulfonamido)nicotinate], the half-inhibitory concentration (IC50) against TNAP was under 100 nM.

At TNAP, `COc1ccc(OC(F)(F)F)cc1S(=O)(=O)Nc1cncc(C(=O)Oc2ccccc2)c1` [Example XII-18, Phenyl 5-(2-methoxy-5-(trifluoromethoxy)phenylsulfonamido)nicotinate] displayed a concentration for half-maximal inhibition (IC50) of under 100 nM.

In turn, `CNC(=O)c1cncc(NS(=O)(=O)c2cc(OC(F)(F)F)ccc2OC)c1` [Example XII-20, 5-(2-Methoxy-5-(trifluoromethoxy)phenylsulfonamido)-N-methylnicotinamide] had a 50% inhibitory concentration (IC50) at TNAP of 100 to 1000 nM.

As to `CCCNC(=O)c1cncc(NS(=O)(=O)c2cc(OC(F)(F)F)ccc2OC)c1` [Example XII-21, 5-(2-Methoxy-5-(trifluoromethoxy)phenylsulfonamido)-N-propylnicotinamide], at TNAP, the IC50 was over 1000 nM.

`COc1ccc(OC(F)(F)F)cc1S(=O)(=O)Nc1cncc(C(=O)NC2CCCCC2)c1` [Example XII-22, 5-(2-Methoxy-5-(trifluoromethoxy)phenylsulfonamido)-N-cyclohexylnicotinamide]: the half-maximal inhibitory concentration (IC50) on TNAP fell in the range of 100 to 1000 nM.

`COC(=O)c1cncc(N(C)S(=O)(=O)c2cc(OC)ccc2OC(F)(F)F)c1` [Example XII-23, 5-[(5-Methoxy-2-trifluoromethoxy-benzenesulfonyl)-methyl-amino]-nicotinic Acid Methyl Ester] registered an IC50 against TNAP of over 1000 nM.

Source of the values: patent US10370333B2 (Sanford Burnham Prebys Medical Discovery Institute, priority 2012, dated 2019).
